Laboratory results: patent US10392422B2, “Macrocyclic broad spectrum antibiotics” (priority 2014, dated 2019)
Converted amounts (≈) assume the structure as drawn. Read-outs that look alike come from different tables or passages of the source.

How the values were obtained:
Experiment in all cases: MIC, broth micro-dilution technique (CLSI)
MRSA COL (NRS100) = format: cell-based, Staphylococcus aureus; conditions: Staphylococcus aureus, 22 h, read-out: MIC (μg/mL) (COL)
Outline: (§1)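 Cation-adjusted MHB + 0.002% Tween-80; 10-point 2-fold series starting 64 μg/ml (modified protocol: 4 μg/mL). Final inoculum OD600 0.0005; 35° C, 22 h. MIC per CLSI M07-A8 broth microdilution.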

[1] = test system: Methicillin Resistant Staphylococcus aureus strain USA 300 (NRS384); format: cell-based; conditions: Staphylococcus aureus, 22 h, read-out: MIC (μg/mL) S. aureus
Outline: as §1

[2] = test system: Escherichia coli MC4100 harboring the IMP4213; format: cell-based; conditions: Escherichia coli, 22 h, 35° C., 22 hours
Outline: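 CLSI broth microdilution in cation-adjusted Mueller Hinton broth with 0.002% v/v Tween-80. Compounds were serially 2-fold diluted over 10 concentrations from 64 μg/ml, or from 4 μg/mL in a modified protocol; inoculum at final OD600 0.0005, incubated 35° C for 22 hours.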

[3] = Table 1 protocol: serial 2-fold dilutions starting from 64 μg/ml, 35° C., 22 hours
[4] = read-out: MIC (μg/mL) E. coli, Table 1 protocol: serial 2-fold dilutions starting from 64 μg/ml
[5] = Table 2 modified protocol: serial 2-fold dilutions starting from 4 μg/mL, 35° C., 22 hours
[6] = read-out: MIC (μg/mL) E. coli, Table 2 modified protocol: serial 2-fold dilutions starting from 4 μg/mL

SMILES	MIC (MRSA COL (NRS100); [3]) [µg/mL]	MIC [1, 3] [µg/mL]	MIC [2, 4] [µg/mL]	MIC (MRSA COL (NRS100)) [µg/mL]	MIC [1] [µg/mL]	MIC (MRSA COL (NRS100); [5]) [µg/mL]	MIC [1, 5] [µg/mL]	MIC [2, 6] [µg/mL]
C[C@@H]1NC(=O)[C@@H](N(C)C(=O)[C@H](CCCCN)NC(=O)c2ccc(-c3ccc(Cl)cc3)cc2)c2ccc(O)c(c2)-c2cc(ccc2O)C[C@@H](C(=O)N[C@@H](C)C(=O)c2ncc[nH]2)NC1=O [Compound 232]	1 (≈ 1.14 µM)	4 (≈ 4.56 µM)	8 (≈ 9.12 µM)					
CCC(=O)[C@H](C)NC(=O)[C@@H]1Cc2ccc(O)c(c2)-c2cc(ccc2O)[C@H](N(C)C(=O)[C@H](CCCCN)NC(=O)c2ccc(-c3ccc(Cl)cc3)cc2)C(=O)N[C@@H](C)C(=O)N1 [Compound 233]	4 (≈ 4.77 µM)	24 (≈ 28.6 µM)	32 (≈ 38.1 µM)					
CCN(CC(N)=O)C(=O)[C@H](C)NC(=O)[C@@H]1Cc2ccc(O)c(c2)-c2cc(ccc2O)[C@H](N(C)C(=O)[C@H](CCCCN)NC(=O)c2ccc(-c3ccc(Cl)cc3)cc2)C(=O)N[C@@H](C)C(=O)N1 [Compound 234]	8 (≈ 8.78 µM)	64 (≈ 70.2 µM)	64 (≈ 70.2 µM)					
C[C@@H]1NC(=O)[C@@H](N(C)C(=O)[C@H](CCCCN)NC(=O)c2ccc(-c3ccc(Cl)cc3)cc2)c2ccc(O)c(c2)-c2cc(ccc2O)C[C@@H](C(=O)N[C@@H](C)C(=O)c2ccn[nH]2)NC1=O [Compound 235]	2 (≈ 2.28 µM)	4 (≈ 4.56 µM)	32 (≈ 36.5 µM)					
C[C@@H]1NC(=O)[C@@H](N(C)C(=O)[C@H](CCCCN)NC(=O)c2ccc(-c3ccc(Cl)cc3)cc2)c2ccc(O)c(c2)-c2cc(ccc2O)C[C@@H](C(=O)NC/C=C/S(C)(=O)=O)NC1=O [Compound 236]			> 64	8 (≈ 9.16 µM)	48 (≈ 55 µM)			
Cc1nc(C(=O)[C@H](C)NC(=O)[C@@H]2Cc3ccc(O)c(c3)-c3cc(ccc3O)[C@H](N(C)C(=O)[C@H](CCCCN)NC(=O)c3ccc(-c4ccc(Cl)cc4)cc3)C(=O)N[C@@H](C)C(=O)N2)no1 [Compound 237]	4 (≈ 4.48 µM)	12 (≈ 13.4 µM)	8 (≈ 8.95 µM)					
CNC(=O)C(=O)CNC(=O)[C@@H]1Cc2ccc(O)c(c2)-c2cc(ccc2O)[C@H](N(C)C(=O)[C@H](CCCCN)NC(=O)c2ccc(-c3ccc(Cl)cc3)cc2)C(=O)N[C@@H](C)C(=O)N1 [Compound 238]	8 (≈ 9.36 µM)	32 (≈ 37.5 µM)	64 (≈ 74.9 µM)					
C[C@@H]1NC(=O)[C@@H](N(C)C(=O)[C@H](CCCCN)NC(=O)c2ccc(-c3ccc(Cl)cc3)cc2)c2ccc(O)c(c2)-c2cc(ccc2O)C[C@@H](C(=O)NCC(=O)C(=O)O)NC1=O [Compound 239]	4 (≈ 4.75 µM)	> 4	> 4					
C[C@H](NC(=O)[C@@H]1Cc2ccc(O)c(c2)-c2cc(ccc2O)[C@H](N(C)C(=O)[C@H](CCCCN)NC(=O)c2ccc(-c3ccc(Cl)cc3)cc2)C(=O)N[C@@H](C)C(=O)N1)C(=O)CNC=O [Compound 240]	2 (≈ 2.3 µM)	4 (≈ 4.61 µM)	48 (≈ 55.3 µM)					
C[C@H](NC(=O)[C@@H]1Cc2ccc(O)c(c2)-c2cc(ccc2O)[C@H](N(C)C(=O)[C@H](CCCCN)NC(=O)c2ccc(-c3ccc(Cl)cc3)cc2)C(=O)N[C@@H](C)C(=O)N1)C(=O)Cn1ccnn1 [Compound 241]	1.5 (≈ 1.68 µM)	4 (≈ 4.48 µM)	16 (≈ 17.9 µM)					
C[C@@H]1NC(=O)[C@@H](N(C)C(=O)[C@H](CCCCN)NC(=O)c2ccc(-c3ccc(Cl)cc3)cc2)c2ccc(O)c(c2)-c2cc(ccc2O)C[C@@H](C(=O)N[C@@H](C)C(=O)C(=O)Nc2cn[nH]c2)NC1=O [Compound 242]						4 (≈ 4.35 µM)	> 4	> 4
C[C@@H]1NC(=O)[C@@H](N(C)C(=O)[C@H](CCCCN)NC(=O)c2ccc(-c3ccc(Cl)cc3)cc2)c2ccc(O)c(c2)-c2cc(ccc2O)C[C@@H](C(=O)N[C@@H](C)C(=O)N(CCO)CC(N)=O)NC1=O [Compound 243]						> 4	> 4	> 4
C[C@@H]1NC(=O)[C@@H](N(C)C(=O)[C@H](CCCCN)NC(=O)c2ccc(-c3ccc(Cl)cc3)cc2)c2ccc(O)c(c2)-c2cc(ccc2O)C[C@@H](C(=O)NCC(=O)c2nnn[nH]2)NC1=O [Compound 244]						4 (≈ 4.62 µM)	> 4	> 4
C[C@@H]1NC(=O)[C@@H](N(C)C(=O)[C@H](CCCCN)NC(=O)c2ccc(-c3ccc(Cl)cc3)cc2)c2ccc(O)c(c2)-c2cc(ccc2O)C[C@@H](C(=O)NCC(=O)c2ncc[nH]2)NC1=O [Compound 245]						2 (≈ 2.32 µM)	4 (≈ 4.63 µM)	> 4
CC(NC(=O)[C@@H]1Cc2ccc(O)c(c2)-c2cc(ccc2O)[C@H](N(C)C(=O)[C@H](CCCCN)NC(=O)c2ccc(-c3ccc(Cl)cc3)cc2)C(=O)N[C@@H](C)C(=O)N1)C(=O)Cn1cc(C(N)=O)nn1 (stereo partly drawn) [Compound 246]						3 (≈ 3.21 µM)	4 (≈ 4.28 µM)	> 4
C[C@H](NC(=O)[C@@H]1Cc2ccc(O)c(c2)-c2cc(ccc2O)[C@H](N(C)C(=O)[C@H](CCCCN)NC(=O)c2ccc(-c3ccc(Cl)cc3)cc2)C(=O)N[C@@H](C)C(=O)N1)C(=O)CF [Compound 247]						1 (≈ 1.19 µM)	2 (≈ 2.37 µM)	> 4
CCOS(=O)(=O)/C=C/[C@H](C)NC(=O)[C@@H]1Cc2ccc(O)c(c2)-c2cc(ccc2O)[C@H](N(C)C(=O)[C@H](CCCCN)NC(=O)c2ccc(-c3ccc(Cl)cc3)cc2)C(=O)N[C@@H](C)C(=O)N1 [Compound 248]			> 64	4 (≈ 4.36 µM)	21 (≈ 22.9 µM)			
C[C@@H]1NC(=O)[C@@H](N(C)C(=O)[C@H](CCCCN)NC(=O)c2ccc(-c3ccc(Cl)cc3)cc2)c2ccc(O)c(c2)-c2cc(ccc2O)C[C@@H](C(=O)N[C@@H](C)/C=C/S(N)(=O)=O)NC1=O [Compound 249]			48 (≈ 54 µM)	16 (≈ 18 µM)	32 (≈ 36 µM)			
C[C@@H]1NC(=O)[C@@H](N(C)C(=O)[C@H](CCCCN)NC(=O)c2ccc(-c3ccc(Cl)cc3)cc2)c2ccc(O)c(c2)-c2cc(ccc2O)C[C@@H](C(=O)N[C@@H](C)C(=O)c2ccccn2)NC1=O [Compound 250]	11 (≈ 12.4 µM)	64 (≈ 72 µM)	64 (≈ 72 µM)					
COC(=O)/C=C/[C@H](C)NC(=O)[C@@H]1Cc2ccc(O)c(c2)-c2cc(ccc2O)[C@H](N(C)C(=O)[C@H](CCCCN)NC(=O)c2ccc(-c3ccc(Cl)cc3)cc2)C(=O)N[C@@H](C)C(=O)N1 [Compound 251]			> 64	16 (≈ 18.4 µM)	64 (≈ 73.8 µM)			
C[C@@H]1NC(=O)[C@@H](N(C)C(=O)[C@H](CCCCN)NC(=O)c2ccc(-c3ccc(Cl)cc3)cc2)c2ccc(O)c(c2)-c2cc(ccc2O)C[C@@H](C(=O)NCC(=O)C2CO2)NC1=O (stereo partly drawn) [Compound 252]						> 4	> 4	> 4
C[C@@H]1NC(=O)[C@@H](N(C)C(=O)[C@H](CCCCN)NC(=O)c2ccc(-c3ccc(Cl)cc3)cc2)c2ccc(O)c(c2)-c2cc(ccc2O)C[C@@H](C(=O)NCC(=O)CF)NC1=O [Compound 253]						4 (≈ 4.82 µM)	> 4	> 4
CC(=O)OCC(=O)CNC(=O)[C@@H]1Cc2ccc(O)c(c2)-c2cc(ccc2O)[C@H](N(C)C(=O)[C@H](CCCCN)NC(=O)c2ccc(-c3ccc(Cl)cc3)cc2)C(=O)N[C@@H](C)C(=O)N1 [Compound 254]						2 (≈ 2.3 µM)	4 (≈ 4.6 µM)	> 4
C[C@H](NC(=O)[C@@H]1Cc2ccc(O)c(c2)-c2cc(ccc2O)[C@H](N(C)C(=O)[C@H](CCCCN)NC(=O)c2ccc(-c3ccc(Cl)cc3)cc2)C(=O)N[C@@H](C)C(=O)N1)C(=O)CN=[N+]=[N-] [Compound 255]			> 64	3 (≈ 3.46 µM)	12 (≈ 13.9 µM)			
